# Values of other authors, collected in patent US8607989B2, “Filter composites for drug detoxification” (Vascular Vision Pharmaceutical Co., priority 2009, dated 2013).
# Test system: breast, colon, and gastric cancer; renal cell carcinoma; and sarcoma
smiles,measurement,value
O=C1[O][Pt]2([NH][C@@H]3CCCC[C@H]3[NH]2)[O]C1=O [Oxaliplatin],activity in in vivo studies,active
